Where a SMILES comes first, the peptide text is derived from it. Bridges are numbered along the chain shown (N, C = ends). [ ]: non-standard residue; d: D form. The star is where a group is joined. Ala(6-(2-MePh)pyridin-3-yl) = Cc1ccccc1-c1ccc(C[C@H](N)C(=O)O)cn1; Phe(4-COOH) = N[C@@H](Cc1ccc(C(=O)O)cc1)C(=O)O; Bip = N[C@@H](Cc1ccc(-c2ccccc2)cc1)C(=O)O; Phe(3-Me) = Cc1cccc(C[C@H](N)C(=O)O)c1; mTyr = N[C@@H](Cc1cccc(O)c1)C(=O)O; 3Pal = N[C@@H](Cc1cccnc1)C(=O)O; 4Pal = N[C@@H](Cc1ccncc1)C(=O)O; Cha = N[C@@H](CC1CCCCC1)C(=O)O; Cit = NC(=O)NCCC[C@H](N)C(=O)O; dCha = N[C@H](CC1CCCCC1)C(=O)O; Carboxymethyl = O=C(O)C*; Orn = NCCC[C@H](N)C(=O)O; Dab = NCC[C@H](N)C(=O)O; Dap = NC[C@H](N)C(=O)O; Propargyl = C#CC*
These compounds were tested against T1, human PD-1 / PD-L1-Ig binding on Jurkat cell line over-expressing human PD-1 (Jurkat-PD-1) (Homo sapiens, UniProt Q15116) (assay: Jurkat-PD-1 Cell Binding High-Content Screening Assay (CBA)). Conditions: Jurkat-PD-1 cells, PE-labeled PD-L1-Ig 20 nM final; read-out: Jurkat HPD1_PDL1 IC50.
T1 construct: expressed in transfected cells; host or cells: Jurkat
T1 sequence (Q15116 25-288): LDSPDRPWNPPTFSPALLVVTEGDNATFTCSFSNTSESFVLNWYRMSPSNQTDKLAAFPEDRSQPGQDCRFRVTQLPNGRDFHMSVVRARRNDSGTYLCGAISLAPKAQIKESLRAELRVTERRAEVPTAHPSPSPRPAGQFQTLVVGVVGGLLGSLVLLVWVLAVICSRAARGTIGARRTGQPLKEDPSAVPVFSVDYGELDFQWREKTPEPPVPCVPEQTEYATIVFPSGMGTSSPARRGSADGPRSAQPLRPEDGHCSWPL
Assay type: cell-based
In short: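 Jurkat-hPD-1 cells in DMEM with 10% fetal calf serum receive test compound and are held at 37° C for 2 h. PE-labeled PD-L1-Ig is added at 20 nM final and left for 1 hour. Cells are then fixed and Hoechst-stained, and binding is measured by imaging.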
`CCCC[C@H]1NC(=O)[C@H](CCCN)NC(=O)[C@H]([C@@H](C)CC)NC(=O)[C@H](Cc2ccc(-c3ccccc3)cc2)NC(=O)[C@H](C(C)C)NC(=O)[C@H](Cc2c[nH]c3ccccc23)NC(=O)[C@H](CC(=O)O)NC(=O)[C@H](Cc2ccc(OCC(=O)O)cc2)NC(=O)[C@H](Cc2ccc(OCC(=O)O)cc2)NC(=O)CSC[C@@H](C(=O)N[C@@H](C)C(N)=O)NC(=O)[C@H]([C@@H](C)O)NC(=O)[C@H](C(C)C)NC(=O)[C@H](CC2CCCCC2)NC(=O)[C@H](CCN)NC1=O` [Compound 1706] was tested, and the IC50 was 11.5 nM. `Cc1cccc(C[C@@H]2NC(=O)[C@H](CC(=O)O)NC(=O)[C@H](Cc3ccc(OCC(=O)O)cc3)NC(=O)[C@H](CN)NC(=O)CSC[C@@H](C(=O)N[C@@H](C)C(=O)N[C@@H](CCC(=O)O)C(N)=O)NC(=O)[C@H]([C@@H](C)O)NC(=O)[C@H](C(C)C)NC(=O)[C@H](CC3CCCCC3)NC(=O)[C@H](CCN)NC(=O)[C@@H](CC(C)C)NC(=O)[C@H](CCCN)NC(=O)[C@H](CCCNC(N)=O)NC(=O)[C@H](Cc3ccc(-c4ccccc4)cc3)NC(=O)[C@H](C(C)C)NC2=O)c1` [Compound 1296] ({CH2CO}-[Dap]Y(Carboxymethyl)D[Phe(3-Me)]V[Bip][Cit][Orn][dL][Dab][Cha]VTCAE-NH2; thioether N-14) was tested, and the IC50 was 13.5 nM. With `CC(C)[C@@H]1NC(=O)[C@H](Cc2c[nH]c3ccccc23)NC(=O)[C@H](CC(=O)O)NC(=O)[C@H](Cc2ccc(OCC(=O)O)cc2)NC(=O)[C@H](CN)NC(=O)CSC[C@@H](C(=O)N[C@@H](C)C(N)=O)NC(=O)[C@H]([C@@H](C)O)NC(=O)[C@H](C(C)C)NC(=O)[C@H](CC2CCCCC2)NC(=O)[C@H](CCN)NC(=O)[C@@H](CC2CCCCC2)NC(=O)[C@H](CCCN)NC(=O)[C@H](CCCNC(N)=O)NC(=O)[C@H](Cc2ccc(-c3ccccc3)cc2)NC1=O` [Compound 1643] ({CH2CO}-[Dap]Y(Carboxymethyl)DWV[Bip][Cit][Orn][dCha][Dab][Cha]VTCA-NH2; thioether N-14) the IC50 was 14.5 nM. `Cc1ccccc1-c1ccc(C[C@@H]2NC(=O)[C@H](CN)NC(=O)CSC[C@@H](C(=O)N[C@@H](C)C(N)=O)NC(=O)[C@H]([C@@H](C)O)NC(=O)[C@H](C(C)C)NC(=O)[C@H](CC3CCCCC3)NC(=O)[C@H](CCN)NC(=O)[C@@H](CC(C)C)NC(=O)[C@H](CCCN)NC(=O)[C@H](CCCNC(N)=O)NC(=O)[C@H](Cc3ccc(-c4ccccc4)cc3)NC(=O)[C@H](C(C)C)NC(=O)[C@H](Cc3c[nH]c4ccccc34)NC(=O)[C@H](CC(=O)O)NC2=O)cn1` [Compound 2135] ({CH2CO}-[Dap][Ala(6-(2-MePh)pyridin-3-yl)]DWV[Bip][Cit][Orn][dL][Dab][Cha]VTCA-NH2; thioether N-14) showed an IC50 of 131 nM. With `CC(C)C[C@H]1NC(=O)[C@H](CCCN)NC(=O)[C@H](CN)NC(=O)[C@H](Cc2ccc(-c3ccccc3)cc2)NC(=O)[C@H](C(C)C)NC(=O)[C@H](Cc2c[nH]c3ccccc23)NC(=O)[C@H](CC(=O)O)NC(=O)[C@H](Cc2ccc(C(=O)O)cc2)NC(=O)[C@H](Cc2ccc(OCC(=O)O)cc2)NC(=O)CSC[C@@H](C(=O)N[C@@H](C)C(N)=O)NC(=O)[C@H](CO)NC(=O)[C@H](C(C)C)NC(=O)[C@H](CC2CCCCC2)NC(=O)[C@H](CCN)NC1=O` [Compound 2540] ({CH2CO}-Y(Carboxymethyl)[Phe(4-COOH)]DWV[Bip][Dap][Orn][dL][Dab][Cha]VSCA-NH2; thioether N-14) the IC50 was 16.1 nM. In the case of `CC(C)[C@@H]1NC(=O)[C@H](Cc2c[nH]c3ccccc23)NC(=O)[C@H](CC(=O)O)NC(=O)[C@H](Cc2ccc(C(=O)O)cc2)NC(=O)[C@H](Cc2ccncc2)NC(=O)CSC[C@@H](C(=O)N[C@@H](C)C(N)=O)NC(=O)[C@H]([C@@H](C)O)NC(=O)[C@H](C(C)C)NC(=O)[C@H](CC2CCCCC2)NC(=O)[C@H](CCN)NC(=O)[C@@H](CC2CCCCC2)NC(=O)[C@H](CCCN)NC(=O)[C@H](CCC(=O)O)NC(=O)[C@H](Cc2ccc(-c3ccccc3)cc2)NC1=O` [Compound 1439] ({CH2CO}-[4Pal][Phe(4-COOH)]DWV[Bip]E[Orn][dCha][Dab][Cha]VTCA-NH2; thioether N-14), the IC50 is reported as 5.5 nM. `CC(C)C[C@H]1NC(=O)[C@H](CCCN)NC(=O)[C@H](CCC(=O)O)NC(=O)[C@H](Cc2ccc(-c3ccccc3)cc2)NC(=O)[C@H](C(C)C)NC(=O)[C@H](Cc2c[nH]c3ccccc23)NC(=O)[C@H](CC(=O)O)NC(=O)[C@H](Cc2cccnc2)NC(=O)[C@H](CC(N)=O)NC(=O)CSC[C@@H](C(=O)N[C@@H](C)C(N)=O)NC(=O)[C@H]([C@@H](C)O)NC(=O)[C@H](C(C)C)NC(=O)[C@H](CC2CCCCC2)NC(=O)[C@H](CCN)NC1=O` [Compound 2170] ({CH2CO}-N[3Pal]DWV[Bip]E[Orn][dL][Dab][Cha]VTCA-NH2; thioether N-14) showed an IC50 of 5.4 nM. Work on `CCNC(=O)[C@H](CCN)NC(=O)[C@@H]1CSCC(=O)N[C@@H](CN)C(=O)N[C@@H](Cc2ccc(OCC(=O)O)cc2)C(=O)N[C@@H](CC(=O)O)C(=O)N[C@@H](Cc2cccc(O)c2)C(=O)N[C@@H](C(C)C)C(=O)N[C@@H](Cc2ccc(-c3ccccc3)cc2)C(=O)N[C@@H](Cc2ccc(O)cc2)C(=O)N[C@@H](CCCN)C(=O)N[C@H](CC(C)C)C(=O)N[C@@H](CCN)C(=O)N[C@@H](CC2CCCCC2)C(=O)N[C@@H](C(C)C)C(=O)N[C@@H](CCCN)C(=O)N1` [Compound 2046] ({CH2CO}-[Dap]Y(Carboxymethyl)D[mTyr]V[Bip]Y[Orn][dL][Dab][Cha]V[Orn]C[Dab]-NHEt; thioether N-14) yielded an IC50 of 16.7 nM. `C#CCOc1ccc(C[C@@H]2NC(=O)[C@H](Cc3cccc(C)c3)NC(=O)[C@H](CC(=O)O)NC(=O)[C@H](Cc3ccc(OCC(=O)O)cc3)NC(=O)[C@H]([C@@H](C)O)NC(=O)CSC[C@@H](C(=O)N[C@@H](CCN)C(N)=O)NC(=O)[C@H](CCC(=O)O)NC(=O)[C@H](C(C)C)NC(=O)[C@H](CC3CCCCC3)NC(=O)[C@H](CCN)NC(=O)[C@@H](CC(C)C)NC(=O)[C@H](CCCN)NC(=O)[C@H](Cc3ccc(OCC(=O)O)cc3)NC(=O)[C@H](Cc3ccc(-c4ccccc4)cc3)NC2=O)cc1` [Compound 1829] ({CH2CO}-TY(Carboxymethyl)D[Phe(3-Me)]Y(Propargyl)[Bip]Y(Carboxymethyl)[Orn][dL][Dab][Cha]VEC[Dab]-NH2; thioether N-14) was tested, and the IC50 was 2.4 nM. For `CC(C)C[C@@H]1NC(=O)[C@H](Cc2c[nH]c3ccccc23)NC(=O)[C@H](CC(=O)O)NC(=O)[C@H](Cc2ccc(O)cc2)NC(=O)[C@H](Cc2ccccc2)NC(=O)CSC[C@@H](C(=O)N[C@@H](C)C(N)=O)NC(=O)[C@H]([C@@H](C)O)NC(=O)[C@H](C(C)C)NC(=O)[C@H](CC(C)C)NC(=O)[C@H](CCN)NC(=O)[C@@H](CC(C)C)NC(=O)[C@H](CCCN)NC(=O)[C@H](C(C)C)NC(=O)[C@H](Cc2ccc(-c3ccccc3)cc2)NC1=O` [Compound 1072] ({CH2CO}-FYDWL[Bip]V[Orn][dL][Dab]LVTCA-NH2; thioether N-14), the IC50 was 27.1 nM.

From patent US20250163104A1, “MACROCYCLIC IMMUNOMODULATORS” (priority 2021, published 2025)
